Entries after “also recorded” stand apart in the source; their conditions may differ.
How the values were obtained:
[1] = tested on: human colorectal cancer-derived cell line NCI-H716; experiment: GLP-1 secretion, GLP-1 concentration in supernatant by ELISA; type: cell-based; settings: for GLP-1 concentration in the supernatant compared to the DMSO treatment (control) group: 60 minutes, result in words (FIGS. 1-11); for fold induction at 100 µM / fold induction at 300 µM: Homo sapiens, NCI-H716, 1 h, GLP-1 concentration in supernatant against control group (0.1% DMSO) as 1, 60 minutes
Procedure: Subcultured human colorectal cancer-derived cell line NCI-H716 (ATCC) was plated on a poly-D-lysine coated 96-well plate at 1×10^5 cells per well. After culture at 37° C., 5% CO2 for 48 hours, the medium was substituted with a buffer (146 mM NaCl, 5 mM KCl, 1 mM MgSO4, 5.5 mM Glucose, 20 mM HEPES, 1.5 mM CaCl2, 0.2% BSA, pH 7.4), and dihydrocapsiate (DCT), dihydrocapsiate glycoside and structural analogs thereof (compounds 4, 12, 47, 27, 20, 18, 16, 30, 32, 32-3, 34, 35, 36, 24-2, 33, 14, 22, 23 and 24), each prepared to a given concentration with dimethyl sulfoxide (DMSO), were added. After treatment at 37° C., 5% CO2 for 60 minutes, the supernatant was recovered, and the concentration of GLP-1 in the supernatant was measured by the ELISA method. The strength of the activity of each compound is expressed against GLP-1 concentration of the control group (0.1% DMSO treatment group) as 1, and the compound showing higher GLP-1 concentration than the control group was evaluated as active.

[2] = tested on: C57BL/6J mice; experiment: food ingestion calories of mice fed test diets for 56 days; type: in vivo; settings: 0.459% (w/w) in high-fat diet, mouse, compared to normal diet, high-fat diet alone or high-fat diet added with DCT, result in words, listed as glycoside DCT
Procedure: Glycoside DCT was added at a proportion of 0.459% (w/w) to AIN-93 composition diet containing 30% lard (to be abbreviated as glycoside DCT diet or glycoside diet), and fed to mouse. […] As a control, AIN-93 composition diet containing 7% lard (to be abbreviated as normal diet), AIN-93 composition diet containing 30% lard (to be abbreviated as high-fat diet), and high-fat diet containing 0.3% (w/w) dihydrocapsiate (DCT) (to be abbreviated as DCT diet) were fed to the mouse.
The details of the test method are shown below. 7-week-old male C57BL/6J mice (n=46) (Charles River Laboratories) were acclimated for 2 weeks, divided into 4 groups such that they have the same average body weight, and each group was allowed to freely ingest a food having the composition shown in Table 2 for 56 days. The body weight and the food ingestion amount were measured every 3-4 days.

[3] = tested on: human colorectal cancer-derived cell line NCI-H716; experiment: GLP-1 secretion, GLP-1 concentration in supernatant by ELISA; type: cell-based; settings: result in words (FIG. 2)

SMILES	GLP-1 concentration in the supernatant compared to the DMSO treatment (control) group [1]	fold induction at 100 µM [1]	total ingested calories during the test period [2]	GLP-1 concentration compared to the group treated with equimolar concentration of glucose or cellobiose [3]	fold induction at 300 µM [1]
COc1cc(COC(=O)CCCCCCC(C)C)ccc1O [DCT, dihydrocapsiate, reference compound]	did not show a similar change	–	–	–	–
COc1cc(COC(=O)CCCCCCC(C)C)ccc1OC1OC(CO)C(O)C(O)C1O [compound 4, O-[4-(β-D-glucopyranosyloxy)-3-methoxybenzyl]-8-methylnonanoic acid ester]	increased in a compound concentration-dependent manner	2.3	suppress food ingestion calories; also recorded: significant decrease	markedly high	–
COc1cc(COC(=O)CCCCCCC(C)C)ccc1OC1OC(CO)C(OC2OC(CO)C(O)C(O)C2O)C(O)C1O [compound 12, O-[4-(β-D-glucopyranosyl-(1→4)-β-D-glucopyranosyloxy)-3-methoxybenzyl]-8-methylnonanoic acid ester]	increased in a compound concentration-dependent manner	5.02	–	markedly high	–
COc1cc(CO)ccc1O[C@@H]1O[C@H](CO)[C@@H](O[C@@H]2O[C@H](CO)[C@@H](O)[C@H](O)[C@H]2O)[C@H](O)[C@H]1O [compound 14, 4-(β-D-glucopyranosyl-(1→4)-β-D-glucopyranosyloxy)-3-methoxybenzyl alcohol]	increased	1.07	–	–	1.12
CCCCCCCCCC(=O)OCc1ccc(OC2OC(CO)C(O)C(O)C2O)c(OC)c1 [compound 16, O-[4-(β-D-glucopyranosyloxy)-3-methoxybenzyl]-decanoic acid ester]	increased	1.23	–	–	3.25
COc1cc(COC(=O)CCCCCC(C)C)ccc1OC1OC(CO)C(O)C(O)C1O [compound 18, O-[4-(β-D-glucopyranosyloxy)-3-methoxybenzyl]-7-methyloctanoic acid ester]	increased	1.33	–	–	1.85
COc1cc(COC(=O)CCCC/C=C/C(C)C)ccc1OC1OC(CO)C(O)C(O)C1O [compound 20, O-[4-(β-D-glucopyranosyloxy)-3-methoxybenzyl]-8-methyl-6-nonenoic acid ester]	increased	1.13	–	–	1.56
COc1cc(CC(=O)OCCCCCCCC(C)C)ccc1OC1OC(CO)C(OC2OC(CO)C(O)C(O)C2O)C(O)C1O [compound 22, O-8-methylnonyl-2-[4-(β-D-glucopyranosyl-(1→4)-β-D-glucopyranosyloxy)-3-methoxyphenyl]acetic acid ester]	increased	1.87	–	–	1.66
COc1cc(CCOC(=O)CCCCCCC(C)C)ccc1OC1OC(CO)C(OC2OC(CO)C(O)C(O)C2O)C(O)C1O [compound 23, O-[4-(β-D-glucopyranosyl-(1→4)-β-D-glucopyranosyloxy)-3-methoxyphenethyl]-8-methylnonanoic acid ester]	increased	1.37	–	–	10.3
COc1cccc(COC(=O)CCCCCCC(C)C)c1OC1OC(CO)C(OC2OC(CO)C(O)C(O)C2O)C(O)C1O [compound 24, O-[2-(β-D-glucopyranosyl-(1→4)-β-D-glucopyranosyloxy)-3-methoxybenzyl]-8-methylnonanoic acid ester]	increased	1.33	–	–	9.5
COc1cccc(COC(=O)CCCCCCC(C)C)c1OC1OC(COC(C)=O)C(OC2OC(COC(C)=O)C(OC(C)=O)C(OC(C)=O)C2OC(C)=O)C(OC(C)=O)C1OC(C)=O (centres unmarked) [compound 24-2]	increased	0.87	–	–	1.15
COc1cc(CNC(=O)CCCCCCC(C)C)ccc1O[C@@H]1O[C@H](CO)[C@@H](O[C@@H]2O[C@H](CO)[C@@H](O)[C@H](O)[C@H]2O)[C@H](O)[C@H]1O [compound 27, N-[4-(β-D-glucopyranosyl-(1→4)-β-D-glucopyranosyloxy)-3-methoxybenzyl]-8-methylnonanamide, reference compound]	did not show GLP-1 secretion promoting activity	0.66	–	–	0.71
COc1cc(CCC(=O)OCCCCCCCC(C)C)ccc1OC1OC(CO)C(O)C(O)C1O [compound 30, O-8-methylnonyl-3-[4-(β-D-glucopyranosyloxy)-3-methoxyphenyl]propionic acid ester]	increased	0.93	–	–	2.6
COc1cc(CCC(=O)OCCCCCCCC(C)C)ccc1OC1OC(CO)C(OC2OC(CO)C(O)C(O)C2O)C(O)C1O [compound 32, O-8-methylnonyl-3-[4-(β-D-glucopyranosyl-(1→4)-β-D-glucopyranosyloxy)-3-methoxyphenyl]propionic acid ester]	increased	1.24	–	–	3.46
COc1ccc(COC(=O)CCCCCCC(C)C)cc1OC1OC(CO)C(O)C(O)C1O [compound 34, O-[3-(β-D-glucopyranosyloxy)-4-methoxybenzyl]-8-methylnonanoic acid ester]	increased	1.29	–	–	1.94
COc1cc(COC(=O)CCCC/C=C/C(C)C)ccc1OC1OC(CO)C(OC2OC(CO)C(O)C(O)C2O)C(O)C1O [compound 35, O-[4-(β-D-glucopyranosyl-(1→4)-β-D-glucopyranosyloxy)-3-methoxybenzyl]-8-methyl-6-nonenoic acid ester]	increased	1.14	–	–	2.4
COc1cc(COC(=O)CCCCCC(C)C)ccc1OC1OC(CO)C(OC2OC(CO)C(O)C(O)C2O)C(O)C1O [compound 36, O-[4-(β-D-glucopyranosyl-(1→4)-β-D-glucopyranosyloxy)-3-methoxybenzyl]-7-methyloctanoic acid ester]	increased	1.19	–	–	2.41
COc1cc(CNC(=O)CCCCCCC(C)C)ccc1O[C@@H]1O[C@H](CO)[C@@H](O)[C@H](O)[C@H]1O [compound 47, N-[4-(β-D-glucopyranosyloxy)-3-methoxybenzyl]-8-methylnonanamide, reference compound]	did not show GLP-1 secretion promoting activity	0.61	–	–	0.78

Source: patent publication US9175028B2, “Glycoside compound” (AJINOMOTO CO., INC., priority 2010, dated 2015)
